Experimental data: patent publication US9416099B2 (priority 2010, dated 2016)

Assays:
Pseudomonas aeruginosa = format: cell-based
Staphylococcus aureas = format: cell-based
[1] = system: Pseudomonas aeruginosa and Staphylococcus aureas; format: cell-based

Row | SMILES | % Kill, Pseudomonas aeruginosa, 400 ppm (Pseudomonas aeruginosa) | % Kill, Pseudomonas aeruginosa, DI water (Pseudomonas aeruginosa) | % Kill, Staphylococcus aureas, 400 ppm (Staphylococcus aureas) | % Kill, Staphylococcus aureas, DI water (Staphylococcus aureas) | Overall Rating [1] | Adjuvant 1 h, mL separation | Anionic 1 h, mL separation | Nonionic 1 h, mL separation | Adjuvant 24 h, mL separation | Anionic 24 h, mL separation | Nonionic 24 h, mL separation
1 | C=CCCCCCCCC(=O)NCCC[N+](C)(C)Cc1ccccc1.[Cl-] [C10-31, C10 DMAPA Benzyl Quat] | 47.4% | 47.5% | 65.5% | 79.7% | superior | – | – | – | – | – | –
2 | C=CCCCCCCCC(=O)NCCC[N+](C)(C)CC(O)CS(=O)(=O)[O-] (stereo not shown) [C10-24, C10 DMAPA Sulfobetaine] | – | – | – | – | – | 0 mL | 0 mL | 0.5 mL | 0 mL | 0 mL | 0.5 mL
3 | C[N+](C)(C)CCCNC(=O)CCCCCCC/C=C/CCCCCCCC(=O)NCCC[N+](C)(C)C [Mix-27, C18 DiDMAPA DiQuat] | 23.2% | 52.4% | 23.2% | 56.1% | good | 0 mL | 0 mL | 0 mL | 0 mL | 0 mL | 0 mL
4 | C[N+](C)(C)CCCNC(=O)CCCCCCC/C=C/CCCCCCCC(=O)NCCC[N+](C)(C)CC(=O)O [C18-38, C18 DiDMAPA Betaine Quat] | 18.8% | 42.2% | 30.3% | 57.4% | good | – | – | – | – | – | –
5 | CCCCCC/C=C/CCCCCCCC[N+](C)(C)Cc1ccccc1 [C16-17, C16 Amine Benzyl Quat] | 39.4% | 42.6% | 42.5% | 48.1% | superior | – | – | – | – | – | –
6 | CC/C=C/CCCCCCCC(=O)NCCC[N+](C)(C)CC(=O)[O-] [C12-22, C12 DMAPA Betaine] | – | – | – | – | – | 0 mL | 0 mL | 0 mL | 0 mL | 0 mL | –
7 | CC/C=C/CCCCCCCC(=O)NCCC[N+](C)(C)CC(O)CS(=O)(=O)[O-] (stereo not shown) [C12-24, C12 DMAPA Sulfobetaine] | – | – | – | – | – | 0 mL | 0 mL | 0.25 mL | 0 mL | 0 mL | 1 mL
8 | CN(C)CCCNC(=O)CCCCCCC/C=C/CCCCCCCC(=O)NCCC[N+](C)(C)CC(=O)[O-] [C18-36, C18 DiDMAPA MonoBetaine] | – | – | – | – | – | 0 mL | 0 mL | 0 mL | 0 mL | 0 mL | –
9 | C[N+](C)(CCCNC(=O)CCCCCCC/C=C/CCCCCCCC(=O)NCCC[N+](C)(C)Cc1ccccc1)Cc1ccccc1.[Cl-].[Cl-] [Mix-65, C18 DiDMAPA Benzyl Quat] | 26.1% | 30.5% | 22.1% | 55.3% | good | – | – | – | – | – | –
10 | C[N+](C)(C)CCCNC(=O)CCCCCCC/C=C/CCCCCCCC(=O)NCCC[N+](C)(C)CC(=O)O [Mix-38, C18 DiDMAPA Betaine Quat] | – | – | – | – | – | 0.5 mL | – | 0 mL | 0.5 mL | – | 0 mL
11 | CN(C)CCCNC(=O)CCCCCCC/C=C/CCCCCCCC(=O)NCCC[N+](C)(C)CC(=O)[O-] [Mix-36, C18 DiDMAPA MonoBetaine] | – | – | – | – | – | – | 0 mL | 0 mL | – | 0 mL | 0 mL
12 | C[N+](C)(CCCNC(=O)CCCCCCC/C=C/CCCCCCCC(=O)NCCC[N+](C)(C)CC(O)CS(=O)(=O)[O-])CC(O)CS(=O)(=O)[O-] (stereo not shown) [Mix-31, C18 DiSulfobetaine] | – | – | – | – | – | 0 mL | 0 mL | 0 mL | 0 mL | 0 mL | –
13 | CN(C)CCCNC(=O)CCCCCCC/C=C/CCCCCCCC(=O)NCCC[N+](C)(C)C [Mix-34, C18 DiDMAPA MonoQuat] | 24.1% | 47.5% | 28.6% | 57.5% | good | – | – | – | – | – | –
14 | C=CCCCCCCCC(=O)NCCC[N+](C)(C)C [C10-18, C10 DMAPA Quat] | 28.9% | 29.6% | 71.8% | 75.9% | good | – | – | – | – | – | –
15 | CCCCCC/C=C/CCCCCCCC(=O)NCCC[N+](C)(C)CC(=O)[O-] [C16-13, C16 DMAPA Betaine] | – | – | – | – | – | – | 0 mL | – | – | 0.25 mL | –
16 | C[N+](C)(CCCNC(=O)CCCCCCCC=CCCCCCCCC(=O)NCCC[N+](C)(C)CC(=O)[O-])CC(=O)[O-] (mixture of isomers) [Mix-32, C18 DiBetaine] | – | – | – | – | – | 0 mL | 0 mL | 0 mL | 0 mL | 0 mL | –
17 | C[N+](C)(CCCNC(=O)CCCCCCC/C=C/CCCCCCCC(=O)NCCC[N+](C)(C)Cc1ccccc1)Cc1ccccc1.[Cl-].[Cl-] [C18-65, C18 DiDMAPA Benzyl Quat] | 24.7% | 30.4% | 20.6% | 55.6% | good | – | – | – | – | – | –
18 | C=CCCCCCCCC[N+](C)(C)C [C10-42, C10 Amine DMS Quat] | – | – | – | – | – | 0 mL | 0 mL | – | 0 mL | 0 mL | –
19 | C[N+](C)(C)CCCNC(=O)CCCCCCC/C=C/CCCCCCCC(=O)NCCC[N+](C)(C)C [C18-27, C18 DiDMAPA DiQuat] | 19.8% | 38.9% | 17.7% | 55.4% | good | – | – | – | – | – | –
20 | C[N+](C)([O-])CCCNC(=O)CCCCCCC/C=C/CCCCCCCC(=O)NCCC[N+](C)(C)CC(=O)[O-] [C18-37, C18 DiDMAPA Betaine AO] | – | – | – | – | – | 0 mL | 0 mL | 0 mL | 0 mL | 0 mL | –
21 | C=CCCCCCCCC(=O)NCCC[N+](C)(C)CC(=O)[O-] [C10-22, C10 DMAPA Betaine] | – | – | – | – | – | 0 mL | 0 mL | – | 0 mL | 0 mL | 0.5 mL
22 | COC(=O)CCCCCCC/C=C/CCCCCCCC(=O)NCCC[N+](C)(C)CC(=O)[O-] [Mix-48, C18 Ester DMAPA Betaine] | – | – | – | – | – | 0 mL | 0 mL | 0 mL | 0 mL | 0 mL | 0.5 mL
23 | C[N+](C)([O-])CCCNC(=O)CCCCCCC/C=C/CCCCCCCC(=O)NCCC[N+](C)(C)CC(=O)[O-] [Mix-37, C18 DiDMAPA Betaine AO] | – | – | – | – | – | – | 0 mL | 0 mL | 0.5 mL | – | 0 mL
24 | CC/C=C/CCCCCCCC(=O)NCCC[N+](C)(C)C [C12-18] | 40.5% | 58.7% | 66.3% | 42.4% | good | – | – | – | – | – | –
25 | C[N+](C)(C)CCCNC(=O)CCCCCCC/C=C/CCCCCCCC(=O)NCCC[N+](C)(C)[O-] [C18-35, C18 DiDMAPA Quat AO] | 34.4% | 29.3% | 35.7% | 55.1% | good | – | – | – | – | – | –
